Structures can show the parent of a compound that is named as a salt.
How the values were obtained:
Format in all cases: physicochemical
[1] = Solubility in 62.5% (v/v) aqueous organic solvents, quantification in HPLC; conditions: 20° C., 30 minutes, monohydrochloride trihydrate
Protocol: The solubility of (+)-(1R,5S,6S)-6-[(R)-1-hydroxyethyl]-1-methyl-2-[(2S,4S)-2-[(3R)-pyrrolidine-3-yl-(R)-hydroxymethyl]pyrrolidine-4-yl]thio-1-carbapen-2-em-3-carboxylic acid monohydrochloride monohydrate and trihydrate in various aqueous organic solvents at a concentration of 62.5% (v/v) in water at 20° C. was determined by HPLC in the following manner.

[2] = Effect of degasification of the air in a vial and/or replacement by nitrogen (storage of powdery charged preparations); conditions: 25 mg/vial, storage at 40° C. for 1 month
Protocol: As the monohydrate crystals, the powdery charged preparation of the novel carbapenem hydrochloride crystals (25 mg/vial) obtained in the method in Example 2-3 (replacement by nitrogen), the powdery charged preparation (25 mg/vial) subjected to replacement by oxygen in place of replacement by nitrogen in Example 2-3, and the powdery charged preparation (25 mg/vial) not subjected to replacement in Example 2-2 were stored at 60° C. for 5 days (N=3) and then measured for their color difference (ΔE), water content, powdery x-ray diffraction pattern, content of residual carbapenem and HPLC impurities. As the trihydrate crystals, the powdery charged preparation of the novel carbapenem hydrochloride crystals (25 mg/vial) obtained by the method (replacement by nitrogen) in Example 1-9 and the powdery charged preparation (25 mg/vial) not subjected to replacement in Example 1-8 were stored at 40° C. for 1 month and then measured for their color difference (ΔE), water content and content of residual carbapenem. The color difference was evaluated by a color difference meter (ZE-200, Nippondenso Co., Ltd.); the water content by a Karl-Fisher moisture meter (CA-05, Mitsubishi Kagaku Kogyo); the powdery X-ray diffraction under the method and conditions in Example 1-1 or 2-1; and the content of residual carbapenem and HPLC impurities by high performance liquid chromatography (Shimadzu Corporation). The color difference (ΔE) is a parameter indicative of a change in the color of the outward appearance of crystals, and its higher value indicates a greater coloration change than at an initial stage (just after production).

[3] = Storage of crystals in bottles without caps at various relative humidity, with or without oxygen absorbent; conditions: 25° C., 2 weeks; for water content (hygroscopicity): listed as trihydrate crystals, monohydrochloride trihydrate
Protocol: The novel carbapenem hydrochloride crystals were weighed in 25 mL wide-mouthed glass bottles (30 mg/bottle), and in the bottles without caps, the monohydrate was stored for 1 week at 40° C. at a relative humidity of 0%, 19.2%, 53% and 75%, and the trihydrate was stored for 2 weeks at 25° C. at a relative humidity of 11%, 33%, 51%, 75% and 93%. Then, the crystals were measured for their color difference (ΔE), water content, powdery X-ray diffraction pattern, and content of residual carbapenem. The monohydrate was also examined in the presence or absence of an oxygen absorbent (trade name: Ageless, produced by Mitsubishi Gas Chemical Co., Ltd.) during storage at each relative humidity. The oxygen absorbent makes oxygen-free conditions under which the preparation is placed.

[4] = Color difference after degasification of vial at various pressures and replacement by nitrogen; conditions: 80° C./1 week, n = 6
Protocol: As the monohydrate, the powdery charged preparations for injection of the novel carbapenem crystals (25 mg/vial) obtained by degasification of the air in the vial at 100, 10, 1, 0.1 and 0.01 hPa (hectopascal) respectively and subsequent replacement by nitrogen according to the method in Example 2-3 (replacement by nitrogen) were stored at 60° C. for 1 or 4 weeks (N=6) and then measured for their color difference (ΔE). The oxygen concentrations in the preparations in vials degasified at 100, 10, 1, 0.1, 0.01 hPa (hectopascal) were measured by an oxygen analyzer (RO-101, Iizima Kogyo). As the trihydrate, the powdery charged preparations of the novel carbapenem hydrochloride crystals (25 mg/vial) obtained in the method in Example 1-9 (replacement by nitrogen) were degasified in the same manner, stored at 80° C. for 1 week (N=6) and then measured for their color difference (ΔE). As the control, the powdery charged preparation of the novel carbapenem hydrochloride crystals (25 mg/vial) subjected to neither degasification nor replacement by nitrogen was used.

[5] = Storage of crystals in bottles without caps at various relative humidity, with or without oxygen absorbent; conditions: 25° C., 2 weeks, listed as trihydrate crystals, monohydrochloride trihydrate

Question: For `C[C@@H](O)[C@H]1C(=O)N2C(C(=O)O)=C(S[C@@H]3CN[C@H]([C@H](O)[C@@H]4CCNC4)C3)[C@H](C)[C@H]12` [trihydrate, (+)-(1R,5S,6S)-6-[(R)-1-Hydroxyethyl]-1-methyl-2-[(2S,4S)-2-[(3R)-pyrrolidine-3-yl-(R)-hydroxymethyl]pyrrolidine-4-yl]thio-1-carbapen-2-em-3-carboxylic acid monohydrochloride trihydrate], which solubility ([1]; 62.5% (v/v) 1-acetoxy-2-methyl ethane in water) is on record?
Answer: 2850 µg/mL

Question: And the solubility ([1]; 62.5% (v/v) 1-ethoxy-2-propanol in water)?
Answer: 3320 µg/mL

Question: And the solubility ([1]; 62.5% (v/v) 1-methoxy-2-propanol in water)?
Answer: 3370 µg/mL

Question: What about the solubility ([1]; 62.5% (v/v) 2-butoxyethanol in water) of the same compound?
Answer: 11850 µg/mL

Question: And the solubility ([1]; 62.5% (v/v) 2-ethoxyethanol in water)?
Answer: 4360 µg/mL

Question: What about the solubility ([1]; 62.5% (v/v) 2-isopropoxyethanol in water) of the same compound?
Answer: 4360 µg/mL

Question: What about the solubility ([1]; 62.5% (v/v) 2-methoxyethanol in water) of the same compound?
Answer: 6390 µg/mL

Question: And the solubility ([1]; 62.5% (v/v) 3-methoxy-3-methyl-1-butanol in water)?
Answer: 4860 µg/mL

Question: What about the solubility ([1]; 62.5% (v/v) 3-methoxybutanol in water) of the same compound?
Answer: 3240 µg/mL

Question: And the solubility ([1]; 62.5% (v/v) IPA (isopropyl alcohol) in water)?
Answer: 4740 µg/mL

Question: And the solubility ([1]; 62.5% (v/v) acetonitrile in water)?
Answer: 12990 µg/mL

Question: And the solubility ([1]; 62.5% (v/v) diethylene glycol monoethyl ether in water)?
Answer: 2680 µg/mL

Question: What about the solubility ([1]; 62.5% (v/v) diethylene glycol monomethyl ether in water) of the same compound?
Answer: 2410 µg/mL

Question: And the solubility ([1]; 62.5% (v/v) dimethyl acetamide in water)?
Answer: 4530 µg/mL

Question: And the solubility ([1]; 62.5% (v/v) dimethyl ether in water)?
Answer: 1440 µg/mL

Question: What about the solubility ([1]; 62.5% (v/v) dimethyl formamide in water) of the same compound?
Answer: 7310 µg/mL

Question: And the solubility ([1]; 62.5% (v/v) dimethyl sulfoxide in water)?
Answer: 11840 µg/mL

Question: And the solubility ([1]; 62.5% (v/v) ethanol in water)?
Answer: 6320 µg/mL

Question: What about the solubility ([1]; 62.5% (v/v) methanol in water) of the same compound?
Answer: 14380 µg/mL

Question: And the solubility ([1]; 62.5% (v/v) n-propanol in water)?
Answer: 10460 µg/mL

Question: What about the solubility ([1]; 62.5% (v/v) t-butanol in water) of the same compound?
Answer: 6060 µg/mL

Question: And the solubility ([1]; 62.5% (v/v) tetrahydrofuran in water)?
Answer: 5290 µg/mL

Question: And the solubility ([1]; 62.5% (v/v) triethylene glycol monomethyl ether in water)?
Answer: 2470 µg/mL

Question: And the “color difference (ΔE)” value ([2]; control (air))?
Answer: 2.78

Question: And the “content of residual carbapenem compound” value ([2]; control (air))?
Answer: 101.0%

Question: And the water content ([2]; control (air))?
Answer: 12.0%

Question: What about the “color difference (ΔE)” value ([2]; gas for replacement nitrogen) of the same compound?
Answer: 0.00

Question: And the “content of residual carbapenem compound” value ([2]; gas for replacement nitrogen)?
Answer: 100.2%

Question: What about the water content ([2]; gas for replacement nitrogen) of the same compound?
Answer: 11.3%

Question: And the “powdery X-ray diffraction pattern (hygroscopicity)” value (shortened to “powdery X-ray diffraction pattern”) ([3]; relative humidity 11%)?
Answer: no change

Question: And the “powdery X-ray diffraction pattern” value ([3]; relative humidity 33%)?
Answer: no change

Question: What about the “water content (hygroscopicity)” value ([3]; relative humidity 33%) of the same compound?
Answer: 11.1%

Question: And the “powdery X-ray diffraction pattern” value ([3]; relative humidity 51%)?
Answer: no change

Question: What about the “water content (hygroscopicity)” value ([3]; relative humidity 51%) of the same compound?
Answer: 11.1%

Question: What about the “powdery X-ray diffraction pattern” value ([3]; relative humidity 75%) of the same compound?
Answer: no change

Question: What about the “powdery X-ray diffraction pattern” value ([3]; relative humidity 93%) of the same compound?
Answer: no change

Question: What about the “color difference (ΔE)” value ([4]; control: neither degasification nor replacement by nitrogen) of the same compound?
Answer: 10.06

Question: What about the “color difference (ΔE)” value ([4]; vial degasified at 1 hPa, replaced by nitrogen) of the same compound?
Answer: 3.62

Question: What about the “color difference (ΔE)” value ([4]; vial degasified at 10 hPa, replaced by nitrogen) of the same compound?
Answer: 3.92

Question: And the “color difference (ΔE)” value ([4]; vial degasified at 100 hPa, replaced by nitrogen)?
Answer: 4.90

Question: What about the “water content (hygroscopicity)” value ([5]; relative humidity 11%) of the same compound?
Answer: 11.0%

Question: What about the “water content (hygroscopicity)” value ([5]; relative humidity 75%) of the same compound?
Answer: 11.1%

Question: What about the “water content (hygroscopicity)” value ([5]; relative humidity 93%) of the same compound?
Answer: 11.4%

— US7084268B1, “Carbapenem compound crystals and interjection preparations” (Eisai Co., Ltd., priority 1999, dated 2006)
